{"source": "paper PMC2813745", "about": "“A novel inhibitor of the PI3K/Akt pathway based on the structure of inositol 1,3,4,5,6-pentakisphosphate” (British Journal of Cancer, 2010)", "key": {"SKOV-3 [1]": {"system": "SKOV-3", "assay": "Acridine orange/ethidium bromide apoptosis assay, SKOV-3", "type": "cell-based, human", "conditions": "SKOV-3, acridine orange/ethidium bromide assay", "experimental": "(§1) Cells seeded in a 24-well plate were treated with the indicated compounds in serum free DMEM or DMEM containing 0.5% FBS (PC3). After 72 h, the number of surviving cells was assessed by manual cell counting or by using the cell counter CDA-500 (Sysmex, Milton Keynes, UK). Alternatively, after 48 h, the number of apoptotic cells was assessed by acridine orange/ethidium bromide assay as described ([Piccolo et al, 2004]; [Maffucci et al, 2005]). SRB test was carried out in SKOV-3 and PC3 seeded in 96-well plate (3800 cells per well or 5800 cells per well, respectively) after 72 h of treatment as described ([Cappella et al, 2001]).\n(§2) The number of surviving cells was assessed by cell counting. Data are mean±s.e. of n=4 (A) and n=2 (B) independent experiments. ^**=P<0.05. […] The number of apoptotic cells was assessed by acridine orange/ethidium bromide assay. Data are mean±s.e. of three independent experiments. ^**=P<0.05."}, "[2]": {"system": "Akt phosphorylation at Ser473 and Thr308 in SKOV-3", "assay": "Akt activation by western blot in SKOV-3", "type": "cell-based, human", "conditions": "SKOV-3, 8 h or 24 h, serum free medium", "experimental": "(§3) Akt activation was assessed by monitoring phosphorylation at its residues Ser473 and Thr308. Membranes were then stripped and re-probed with the indicated antibodies."}, "MAP2K2 (MEK2)": {"target": "MAP2K2 (MEK2) (Homo sapiens, UniProt P36507)", "sequence (P36507 whole entry)": "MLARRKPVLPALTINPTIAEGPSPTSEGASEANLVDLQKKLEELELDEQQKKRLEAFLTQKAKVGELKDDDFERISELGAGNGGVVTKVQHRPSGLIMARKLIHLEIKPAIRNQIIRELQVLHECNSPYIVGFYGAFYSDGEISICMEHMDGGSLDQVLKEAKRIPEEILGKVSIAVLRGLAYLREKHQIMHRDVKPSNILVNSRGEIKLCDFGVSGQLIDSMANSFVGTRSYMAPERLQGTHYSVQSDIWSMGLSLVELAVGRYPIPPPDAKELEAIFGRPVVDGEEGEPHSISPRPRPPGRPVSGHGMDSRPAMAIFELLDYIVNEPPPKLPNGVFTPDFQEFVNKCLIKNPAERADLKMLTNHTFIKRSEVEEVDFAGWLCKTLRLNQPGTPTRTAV", "assay": "SelectScreen kinase profiling: MAP2K2", "type": "biochemical", "conditions": "[ATP] 100 µM", "experimental": "(§4) Effect of the indicated compounds on the activity of various kinases was assessed by SelectScreen Kinase Profiling Service (Invitrogen-Life Technologies, Paisley, UK). Assays were performed using 1 μM of the tested compounds and ATP concentration as indicated in the corresponding tables. In the case of […] a screen using 10 μM of the compound was also carried out, as indicated in the corresponding table."}, "MDA-MB-468": {"system": "MDA-MB-468", "assay": "Cell survival by cell counting, MDA-MB-468", "type": "cell-based, human", "conditions": "MDA-MB-468, 72 h", "experimental": "as §1\n(§5) The number of surviving cells was assessed by cell counting. Data are mean±s.e. of n=3 (A), n=6 (B), n=3 (C) and n=4 (D) independent experiments carried out in duplicate. ^*=P<0.01; ^**=P<0.05. […] After 72 h the number of surviving cells was assessed by SRB assay. Data are mean±s.e. of n=2 independent experiments.\n(§6) Data are mean±s.e. of n=4 independent experiments carried out in duplicate. […] Data are mean±s.e. of n=5 independent experiments carried out in duplicate. […] In all cases (A–D), cells were treated for 72 h and the number of surviving cells was assessed by cell counting. […] In all cases (E, F), cells were treated for 72 h and the number of surviving cells was assessed by SRB assay and data are mean±s.e. of two experiments carried out in quadruplicate."}, "SKOV-3 [3]": {"system": "SKOV-3", "assay": "Cell survival by cell counting, SKOV-3", "type": "cell-based, human", "conditions": "SKOV-3, 72 h", "experimental": "as §1, §2"}, "MCF7": {"system": "MCF7", "assay": "Cell survival by cell counting, MCF7", "type": "cell-based, human", "conditions": "MCF7, 72 h, 20 nM 4-OH Tamoxifen, 50 μM 2-O-Bn-InsP5 alone or in combination", "experimental": "as §1\nData are mean±s.e. of n=4 independent experiments carried out in duplicate. […] Data are mean±s.e. of n=5 independent experiments carried out in duplicate. […] Data are mean±s.e. of n=6 independent experiments carried out in duplicate. […] Data are mean±s.e. of n=2 independent experiments carried out in duplicate. In all cases (A–D), cells were treated for 72 h and the number of surviving cells was assessed by cell counting. […] In all cases (E, F), cells were treated for 72 h and the number of surviving cells was assessed by SRB assay and data are mean±s.e. of two experiments carried out in quadruplicate."}, "ITK": {"target": "ITK (Homo sapiens, UniProt Q08881)", "sequence (Q08881 whole entry)": "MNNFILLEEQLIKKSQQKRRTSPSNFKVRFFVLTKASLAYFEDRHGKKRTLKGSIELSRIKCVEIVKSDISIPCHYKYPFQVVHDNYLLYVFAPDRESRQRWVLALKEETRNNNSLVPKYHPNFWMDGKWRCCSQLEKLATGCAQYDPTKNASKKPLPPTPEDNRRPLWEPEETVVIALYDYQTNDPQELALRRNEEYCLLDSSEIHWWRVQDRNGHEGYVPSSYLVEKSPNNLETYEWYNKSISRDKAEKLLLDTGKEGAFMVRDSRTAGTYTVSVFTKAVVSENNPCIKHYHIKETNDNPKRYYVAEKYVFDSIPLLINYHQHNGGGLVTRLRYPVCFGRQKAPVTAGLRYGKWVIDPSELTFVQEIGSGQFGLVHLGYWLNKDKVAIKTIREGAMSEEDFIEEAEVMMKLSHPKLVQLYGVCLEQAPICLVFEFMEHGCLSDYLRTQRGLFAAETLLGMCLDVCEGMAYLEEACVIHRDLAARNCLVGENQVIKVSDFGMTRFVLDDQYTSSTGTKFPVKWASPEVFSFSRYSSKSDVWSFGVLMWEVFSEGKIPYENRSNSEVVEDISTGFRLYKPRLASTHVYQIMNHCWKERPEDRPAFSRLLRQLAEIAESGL", "assay": "SelectScreen kinase profiling: ITK", "type": "biochemical", "conditions": "[ATP] 5 µM", "experimental": "as §4"}, "PC3": {"system": "PC3", "assay": "Cell survival by cell counting, PC3", "type": "cell-based, human", "conditions": "PC3, 72 h", "experimental": "as §1, §5, §6"}, "[4]": {"system": "almost 60 protein kinases", "assay": "SelectScreen kinase profiling: all the other tested kinases of the panel", "type": "biochemical", "conditions": "1 μM; all tested kinases other than PDK1 and mTOR", "experimental": "Effect of the indicated compounds on the activity of various kinases was assessed by SelectScreen Kinase Profiling Service (Invitrogen-Life Technologies, Paisley, UK). Assays were performed using 1 μM of the tested compounds and ATP concentration as indicated in the corresponding tables. In the case of InsP5 a screen using 10 μM of the compound was also carried out, as indicated in the corresponding table.\nNone of the other polyphosphates had any significant effect (Table 1C). […] This is consistent with the detected inhibition of Thr308 phosphorylation in 2-O-Bn-InsP5-treated SKOV-3 and PC3 cells (Figure 1B and C) and 2-O-Bn-InsP5-treated mice (Figure 4D)."}, "[5]": {"system": "Akt phosphorylation in PC3", "assay": "Akt activation by western blot in PC3", "type": "cell-based, human", "conditions": "PC3, 24 h, medium containing 0.5% FBS", "experimental": "as §3"}, "CHUK (IKKα)": {"target": "CHUK (IKKα) (Homo sapiens, UniProt O15111)", "sequence (O15111 whole entry)": "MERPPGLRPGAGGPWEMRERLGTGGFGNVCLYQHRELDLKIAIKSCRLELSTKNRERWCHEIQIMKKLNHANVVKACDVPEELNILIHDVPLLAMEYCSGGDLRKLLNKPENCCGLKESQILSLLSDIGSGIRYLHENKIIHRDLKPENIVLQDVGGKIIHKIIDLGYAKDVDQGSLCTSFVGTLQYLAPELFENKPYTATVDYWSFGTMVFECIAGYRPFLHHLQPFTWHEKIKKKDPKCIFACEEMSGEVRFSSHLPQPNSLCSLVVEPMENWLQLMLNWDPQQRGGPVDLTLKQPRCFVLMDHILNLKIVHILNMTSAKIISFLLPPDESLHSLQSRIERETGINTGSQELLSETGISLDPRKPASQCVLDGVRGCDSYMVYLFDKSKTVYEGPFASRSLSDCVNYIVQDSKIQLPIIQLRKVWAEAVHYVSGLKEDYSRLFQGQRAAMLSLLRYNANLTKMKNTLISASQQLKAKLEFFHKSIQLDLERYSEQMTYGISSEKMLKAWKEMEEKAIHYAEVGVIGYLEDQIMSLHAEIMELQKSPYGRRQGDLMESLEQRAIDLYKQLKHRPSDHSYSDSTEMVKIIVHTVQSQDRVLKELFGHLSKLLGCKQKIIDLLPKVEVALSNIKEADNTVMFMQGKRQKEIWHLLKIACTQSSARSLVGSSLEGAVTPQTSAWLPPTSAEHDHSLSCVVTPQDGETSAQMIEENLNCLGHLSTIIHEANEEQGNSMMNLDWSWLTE", "assay": "SelectScreen kinase profiling: CHUK", "type": "biochemical", "conditions": "[ATP] 10 µM", "experimental": "as §4"}, "ASPC1": {"system": "ASPC1", "assay": "Cell survival by cell counting, ASPC1", "type": "cell-based, human", "conditions": "ASPC1, 72 h", "experimental": "as §1, §5, §6"}, "CAMK1 (CaMK1)": {"target": "CAMK1 (CaMK1) (Homo sapiens, UniProt Q14012)", "sequence (Q14012 whole entry)": "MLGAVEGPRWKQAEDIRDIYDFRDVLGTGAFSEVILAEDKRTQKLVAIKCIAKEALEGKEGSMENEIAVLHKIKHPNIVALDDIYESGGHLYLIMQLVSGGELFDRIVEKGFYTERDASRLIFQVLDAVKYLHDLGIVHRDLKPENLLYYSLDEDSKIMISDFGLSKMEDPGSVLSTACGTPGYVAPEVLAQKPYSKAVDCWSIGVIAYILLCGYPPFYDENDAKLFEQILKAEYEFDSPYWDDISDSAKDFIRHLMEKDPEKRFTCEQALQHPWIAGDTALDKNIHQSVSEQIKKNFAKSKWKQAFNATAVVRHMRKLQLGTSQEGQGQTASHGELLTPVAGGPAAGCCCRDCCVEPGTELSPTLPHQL", "assay": "SelectScreen kinase profiling: CAMK1", "type": "biochemical", "conditions": "10 µM compound; [ATP] 100 µM", "experimental": "as §4"}}}
{"smiles": "O=P(O)(O)OC1C(OCc2ccccc2)C(OP(=O)(O)O)C(OP(=O)(O)O)C(OP(=O)(O)O)C1OP(=O)(O)O", "note": "(centres unmarked) [2-O-Bn-InsP5, 2-O-benzyl-myo-inositol 1,3,4,5,6-pentakisphosphate]", "values": [{"measurement": "percentage of apoptotic cells", "setting": "SKOV-3 [1]", "result": "percentage of apoptotic cells was higher in 2-O-Bn-InsP5-treated compared with InsP5-treated"}, {"measurement": "Akt phosphorylation at residue Ser473", "setting": "[2]", "result": "inhibited Akt phosphorylation at its residue Ser473 more efficiently than InsP5 in SKOV-3, being already active after 8 h of treatment and at a concentration of 20 μM"}, {"measurement": "Akt phosphorylation at residue Thr308", "setting": "[2]", "result": "Inhibition of Akt phosphorylation at residue Thr308 was also detected"}, {"measurement": "inhibition at 1 µM", "setting": "MAP2K2 (MEK2); 1 µM compound", "result": 8, "unit": "%"}, {"measurement": "number of surviving cells", "setting": "MDA-MB-468", "result": "stronger activity of 2-O-Bn-InsP5 compared with InsP5"}, {"measurement": "number of surviving cells", "setting": "SKOV-3 [3]", "result": "strongly reduced the number of surviving"}, {"measurement": "number of surviving cells", "setting": "MCF7", "result": "little effect"}, {"measurement": "inhibition at 1 µM", "setting": "ITK; 1 µM compound", "result": -11, "unit": "%"}, {"measurement": "number of surviving cells", "setting": "PC3", "result": "stronger activity of 2-O-Bn-InsP5 compared with InsP5"}, {"measurement": "percentage of inhibition of all the other tested kinases", "setting": "[4]", "result": "< 40", "unit": "%"}, {"measurement": "Akt phosphorylation", "setting": "[5]", "result": "able to block Akt phosphorylation"}, {"measurement": "inhibition at 1 µM", "setting": "CHUK (IKKα); 1 µM compound", "result": -2, "unit": "%"}, {"measurement": "number of surviving cells", "setting": "ASPC1", "result": "more active than InsP5 at almost all concentrations tested"}]}
{"smiles": "O=P(O)(O)OC1C(O)C(OP(=O)(O)O)C(OP(=O)(O)O)C(OP(=O)(O)O)C1OP(=O)(O)O", "note": "(centres unmarked) [InsP5, inositol 1,3,4,5,6-pentakisphosphate]", "values": [{"measurement": "inhibition at 10 µM", "setting": "MAP2K2 (MEK2); 10 µM compound", "result": 3, "unit": "%"}, {"measurement": "inhibition at 10 µM", "setting": "ITK; 10 µM compound", "result": 6, "unit": "%"}, {"measurement": "inhibition at 10 µM", "setting": "CAMK1 (CaMK1)", "result": -46, "unit": "%"}, {"measurement": "inhibition at 10 µM", "setting": "CHUK (IKKα); 10 µM compound", "result": 3, "unit": "%"}]}
